# PubChem BioAssay (NCI)
#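 Test compounds were applied to cells in 96-well plates for 48 hours at 5 doses. GI50 marks 50% less growth. Definition used: TGI = concentration required for complete inhibition of growth.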
# Test system: MDA-MB-468 breast
# Experiment: NCI tumour cell line growth inhibition, 48 h
SMILES,GI50 [µM],TGI [µM]
CN(c1ccc(NC(=O)NCCN2CCOCC2)cc1)c1ccnc(Nc2ccc(CS(C)(=O)=O)cc2)n1,8.21,> 25
CCN(CC)Cc1cc(Nc2cc(C(F)(F)F)c(C#N)c3nc4ccccc4n23)ccc1O,0.228,3.69
CS(=O)(=O)c1ccc2c(c1)c1c(n2C(=O)c2ccc(Cl)cc2)CCCC1,2.09,> 100
CCN(CC)C(=O)CCCCCn1c2ccccc2c2c3c(c4c5ccccc5[nH]c4c21)C(=O)N(O)C3=O,5.79,> 100
Cc1nn2c(-c3nc4cc(Cl)c(Cl)cc4[nH]3)c(-c3ccc(F)cc3)nc2s1,> 29.1,> 100
CCOC(=O)c1cc2cc(OCc3ccccc3)ccc2[nH]1,> 100,> 100
CCN(CC)C(=S)SSCCO,15,28.9
Cc1ccc(O)cc1Nc1ccnc2cc(-c3ccccn3)ccc12,0.736,3.57
COc1cc(/C=N/Nc2ccnc3cc(Cl)ccc23)cc(OC)c1O,1.65,3.28
Cc1ccc(NC2=CC(=O)C(=O)c3ccccc32)c(C)c1,2.56,8.61
O=S(=O)(NCCCNc1nccc(-c2c(-c3cccc(F)c3)nc3occn23)n1)c1cccc2ccccc12,4.86,> 100
N#Cc1cccc(C2C3=C(COC3=O)N(CCO)c3cc4c(cc32)CCC4)c1 (configuration not stated),0.115,–
OC(c1cc(-c2ccc(Cl)cc2)nc2c(Cl)cccc12)C1CCCCN1 (configuration not stated),1.74,3.26
Nc1c(C(=O)Nc2ccccn2)sc2nc3c(cc12)CCCCCC3,0.435,7.13
O=C1C2C(C(=O)N1CC[Se][Se]CCN1C(=O)C3C(C1=O)[C@H]1C=C[C@@H]3C1)[C@H]1C=C[C@@H]2C1 (some centres not stated),0.324,1.32
CC1(C)N=C(N)N=C(N)N1c1ccc(OCCCCNC(=O)Nc2cccc(S(=O)(=O)F)c2)c(Cl)c1,3.47,> 100
CCc1c(C#N)c(SC(C(N)=O)c2ccccc2)nc(N2CCC(N)CC2)c1C#N (configuration not stated),3.53,16.4
CN(C)c1ccc2c(c1)OC(N)=C(C#N)C2c1ccc2c(c1)CCCN2C (configuration not stated),1.62,42.5
Cc1n(Cc2ccc3ccccc3n2)cc[n+]1Cc1ccc2ccccc2c1,0.27,1.58
Cc1ccc(C(=O)N2C/C(=C/c3ccccc3)C(=O)/C(=C/c3ccccc3)C2)cc1,2.23,10.7
O=C(Nc1nc2c(s1)CCc1c-2c(Br)n(Cc2ccccc2)c1Br)c1ccccc1,8.28,> 100
COc1cc(OC)c(/C=C/C(=O)c2c(N)cc(OC)cc2OC)c(OC)c1,0.322,7.26

SMILES,GI50 [µM],TGI [µM]
C=C(C)[C@@H]1CC[C@]2(C(=O)n3ccnc3)CC[C@]3(C)[C@H](CC[C@@H]4[C@@]5(C)CCCNC(C)(C)[C@@H]5CC[C@]43C)[C@@H]12,1.9,3.53
CCc1ccc(C2=NN(c3ccc(S(C)(=O)=O)cc3)C(=O)CC2)cc1,4.43,43.7
CC/C(=C(/c1ccc(/C=C/C(=O)O)cc1)c1ccc2[nH]ncc2c1)c1ccc(F)cc1Cl,15.1,42.8
Nc1n[nH]c2ccc([C@@H]3Nc4c(F)cc5[nH]ncc5c4[C@H]4C5CCC(C5)[C@@H]34)cc12 (some centres not stated),0.116,0.621
CCN(CC)CCS(=O)(=O)CCNc1ccnc2cc(Cl)ccc12,0.711,1.91
Oc1c(I)cc(Cl)c2cccnc12,2.05,5.13
CC(C)C/C(=N\NC(=O)c1ccncc1)c1cc(Cl)ccc1O,0.288,1.97
CCOc1cc2c(cc1O)CC[C@@H]1[C@@H]2CC[C@]2(C)[C@@H](O)CC[C@@H]12,4.96,31.8
Cc1cc(-c2ccco2)cc(C)c1/C=C/c1cncc(-c2nn[nH]n2)c1,> 25,> 25
Cc1ccccc1CNc1c2ccccc2nc2ccccc12,1.88,4.89
O=C(/C=C/c1cccc(Oc2ccc(Cl)cc2)c1)c1ccccc1,101,338
Nc1ccn([C@@H]2S[C@H](CO)[C@@H](O)[C@@H]2F)c(=O)n1,3.25,> 88.6
CN(C)CCS(=O)(=O)Nc1cc(-c2ccc3ncnc(Nc4ccc(F)c(Cl)c4)c3c2)cnc1Cl,0.133,0.449
O=C(Nc1cccc(-n2cc(-c3ccncc3)c(-c3ccc(O)c(Cl)c3)n2)c1)Nc1ccc(Cl)c(Cl)c1,1.96,6.65
Oc1ccc(-c2[nH]c3ccccc3c2-c2nc3ccccc3o2)cc1,1.36,5.98
CCN(CC)CCCNc1c2ccc(Cl)cc2nc2ccc(OC)cc12,0.0711,2.71
Cc1ccc(-c2nc(C(Cl)Cl)nc3cc(C)nn23)cc1,0.259,0.957
N=C(N)c1ccc(OCCCCCOc2ccc(C(=N)N)cc2)cc1,0.466,5.83
CCN(CCNc1ccc(C)c2sc3cc(Cl)ccc3c(=O)c12)CC(C)(C)O,3.49,10.4
C=CC[PH+](c1ccccc1)c1ccccc1.C=CC[PH+](c1ccccc1)c1ccccc1.[Pt+2].[S-]c1ncccn1.[S-]c1ncccn1,3.06,13.9
COc1ncc2cc1NS(=O)(=O)c1cccc(c1)C(=O)NCC1=CC=C(S1)c1ncnc3c1SC2=C3C,0.072,0.234
COC(=O)C1=Nc2ccc(F)cc2/C1=C/c1sc(=S)[nH]c1O,0.354,2.95
